Assay results from patent US11497212B2, “Substituted thiophenyl uracils, salts thereof and the use thereof as herbicidal agents” (Syngenta Crop Protection AG, priority 2017, dated 2022).

Test system: Abutilon theophrasti
Experiment: Herbicidal action post-emergence (greenhouse pot trial)
Format: in vivo
Conditions: application rate 20 g/ha, scored visually after about 3 weeks vs untreated controls
Experimental: (§1) Seeds of mono- and dicotyledonous weed plants and crop plants are laid out in sandy loam soil in plastic or wood-fiber pots, covered with earth and grown under controlled growth conditions in a greenhouse. 2 to 3 weeks after sowing, the trial plants are treated at the one-leaf stage. The compounds of the invention formulated in the form of wettable powders (WP) or emulsion concentrates (EC) were then sprayed onto the green parts of the plant as an aqueous suspension or emulsion with addition of 0.5% additive at a water application rate equivalent to 600 L/ha. After the trial plants had stood for about 3 weeks in the greenhouse, under optimal growth conditions, the effect of the preparations was scored visually by comparison with untreated controls. For example, 100% efficacy=plants have died, 0% efficacy=like control plants. Tables A1 to A15 below show the efficacies of selected compounds of the general formula (I) according to tables I.1 to I.60 on various harmful plants and an application rate corresponding to 80 g/ha or lower that were obtained by the aforementioned trial method.

| SMILES | Abutilon theophrasti (Efficacy in %) [%] |
| --- | --- |
| CCC(C)C(Sc1cc(-n2c(=O)cc(C(F)(F)F)n(C)c2=O)c(F)cc1Cl)C(=O)OCC1CCCO1 (centres unmarked) [I.5-71] | 100 |
| CC(C)C(Sc1cc(-n2c(=O)cc(C(F)(F)F)n(C)c2=O)c(F)cc1Cl)C(=O)OCC1CCOC1 (centres unmarked) [I.6-72] | 100 |
| Cc1c(C(F)(F)F)n(C)c(=O)n(-c2cc(SCC(C)(C)C(=O)NCC3CCCO3)c(Cl)cc2F)c1=O (centres unmarked) [I.54-221] | 100 |
| Cc1c(C(F)(F)F)n(C)c(=O)n(-c2cc(SCC(C)(C)C(=O)OCC3CCSC3)c(Cl)cc2F)c1=O (centres unmarked) [I.54-82] | 100 |

Test system: Amaranthus retroflexus
Experiment: as above
Format: in vivo
Conditions: application rate 20 g/ha, scored visually after about 3 weeks vs untreated controls
Experimental: as §1

| SMILES | Amaranthus retroflexus (Efficacy in %) [%] |
| --- | --- |
| CCC(C)C(Sc1cc(-n2c(=O)cc(C(F)(F)F)n(C)c2=O)c(F)cc1Cl)C(=O)OCC1CCCO1 (centres unmarked) [I.5-71] | 100 |
| CC(C)C(Sc1cc(-n2c(=O)cc(C(F)(F)F)n(C)c2=O)c(F)cc1Cl)C(=O)OCC1CCOC1 (centres unmarked) [I.6-72] | 100 |
| Cc1c(C(F)(F)F)n(C)c(=O)n(-c2cc(SCC(C)(C)C(=O)NCC3CCCO3)c(Cl)cc2F)c1=O (centres unmarked) [I.54-221] | 100 |
| Cc1c(C(F)(F)F)n(C)c(=O)n(-c2cc(SCC(C)(C)C(=O)OCC3CCSC3)c(Cl)cc2F)c1=O (centres unmarked) [I.54-82] | 100 |

Test system: Digitaria sanguinalis
Experiment: as above
Format: in vivo
Conditions: application rate 20 g/ha
Experimental: as §1

| SMILES | Digitaria sanguinalis (Efficacy in %) [%] |
| --- | --- |
| CCC(C)C(Sc1cc(-n2c(=O)cc(C(F)(F)F)n(C)c2=O)c(F)cc1Cl)C(=O)OCC1CCCO1 (centres unmarked) [I.5-71] | 100 |
| CC(C)C(Sc1cc(-n2c(=O)cc(C(F)(F)F)n(C)c2=O)c(F)cc1Cl)C(=O)OCC1CCOC1 (centres unmarked) [I.6-72] | 100 |

Test system: Echinochloa crus-galli
Experiment: as above
Format: in vivo
Conditions: application rate 20 g/ha, scored visually after about 3 weeks vs untreated controls
Experimental: as §1

| SMILES | Echinochloa crus-galli (Efficacy in %) [%] |
| --- | --- |
| CCC(C)C(Sc1cc(-n2c(=O)cc(C(F)(F)F)n(C)c2=O)c(F)cc1Cl)C(=O)OCC1CCCO1 (centres unmarked) [I.5-71] | 90 |
| CC(C)C(Sc1cc(-n2c(=O)cc(C(F)(F)F)n(C)c2=O)c(F)cc1Cl)C(=O)OCC1CCOC1 (centres unmarked) [I.6-72] | 80 |

Test system: Matricaria inodora
Experiment: as above
Format: in vivo
Conditions: application rate 20 g/ha, scored visually after about 3 weeks vs untreated controls
Experimental: as §1

| SMILES | Matricaria inodora (Efficacy in %) [%] |
| --- | --- |
| CCC(C)C(Sc1cc(-n2c(=O)cc(C(F)(F)F)n(C)c2=O)c(F)cc1Cl)C(=O)OCC1CCCO1 (centres unmarked) [I.5-71] | 100 |
| CC(C)C(Sc1cc(-n2c(=O)cc(C(F)(F)F)n(C)c2=O)c(F)cc1Cl)C(=O)OCC1CCOC1 (centres unmarked) [I.6-72] | 100 |
| Cc1c(C(F)(F)F)n(C)c(=O)n(-c2cc(SCC(C)(C)C(=O)NCC3CCCO3)c(Cl)cc2F)c1=O (centres unmarked) [I.54-221] | 100 |

Test system: Pharbitis purpurea
Experiment: as above
Format: in vivo
Conditions: application rate 20 g/ha
Experimental: as §1

| SMILES | Pharbitis purpurea (Efficacy in %) [%] |
| --- | --- |
| CCC(C)C(Sc1cc(-n2c(=O)cc(C(F)(F)F)n(C)c2=O)c(F)cc1Cl)C(=O)OCC1CCCO1 (centres unmarked) [I.5-71] | 100 |
| CC(C)C(Sc1cc(-n2c(=O)cc(C(F)(F)F)n(C)c2=O)c(F)cc1Cl)C(=O)OCC1CCOC1 (centres unmarked) [I.6-72] | 100 |
| Cc1c(C(F)(F)F)n(C)c(=O)n(-c2cc(SCC(C)(C)C(=O)NCC3CCCO3)c(Cl)cc2F)c1=O (centres unmarked) [I.54-221] | 100 |

Test system: Polygonum convolvulus
Experiment: as above
Format: in vivo
Conditions: application rate 20 g/ha, scored visually after about 3 weeks vs untreated controls
Experimental: as §1

| SMILES | Polygonum convolvulus (Efficacy in %) [%] |
| --- | --- |
| CCC(C)C(Sc1cc(-n2c(=O)cc(C(F)(F)F)n(C)c2=O)c(F)cc1Cl)C(=O)OCC1CCCO1 (centres unmarked) [I.5-71] | 100 |
| CC(C)C(Sc1cc(-n2c(=O)cc(C(F)(F)F)n(C)c2=O)c(F)cc1Cl)C(=O)OCC1CCOC1 (centres unmarked) [I.6-72] | 100 |
| Cc1c(C(F)(F)F)n(C)c(=O)n(-c2cc(SCC(C)(C)C(=O)NCC3CCCO3)c(Cl)cc2F)c1=O (centres unmarked) [I.54-221] | 100 |

Test system: Setaria viridis
Experiment: as above
Format: in vivo
Conditions: application rate 20 g/ha, scored visually after about 3 weeks vs untreated controls
Experimental: as §1

| SMILES | Setaria viridis (Efficacy in %) [%] |
| --- | --- |
| CCC(C)C(Sc1cc(-n2c(=O)cc(C(F)(F)F)n(C)c2=O)c(F)cc1Cl)C(=O)OCC1CCCO1 (centres unmarked) [I.5-71] | 90 |
| CC(C)C(Sc1cc(-n2c(=O)cc(C(F)(F)F)n(C)c2=O)c(F)cc1Cl)C(=O)OCC1CCOC1 (centres unmarked) [I.6-72] | 90 |

Test system: Stellaria media
Experiment: as above
Format: in vivo
Conditions: application rate 20 g/ha, scored visually after about 3 weeks vs untreated controls
Experimental: as §1

| SMILES | Stellaria media (Efficacy in %) [%] |
| --- | --- |
| CCC(C)C(Sc1cc(-n2c(=O)cc(C(F)(F)F)n(C)c2=O)c(F)cc1Cl)C(=O)OCC1CCCO1 (centres unmarked) [I.5-71] | 80 |
| CC(C)C(Sc1cc(-n2c(=O)cc(C(F)(F)F)n(C)c2=O)c(F)cc1Cl)C(=O)OCC1CCOC1 (centres unmarked) [I.6-72] | 90 |
| Cc1c(C(F)(F)F)n(C)c(=O)n(-c2cc(SCC(C)(C)C(=O)NCC3CCCO3)c(Cl)cc2F)c1=O (centres unmarked) [I.54-221] | 80 |

Test system: Veronica persica
Experiment: as above
Format: in vivo
Conditions: application rate 20 g/ha
Experimental: as §1

| SMILES | Veronica persica (Efficacy in %) [%] |
| --- | --- |
| CCC(C)C(Sc1cc(-n2c(=O)cc(C(F)(F)F)n(C)c2=O)c(F)cc1Cl)C(=O)OCC1CCCO1 (centres unmarked) [I.5-71] | 100 |
| CC(C)C(Sc1cc(-n2c(=O)cc(C(F)(F)F)n(C)c2=O)c(F)cc1Cl)C(=O)OCC1CCOC1 (centres unmarked) [I.6-72] | 100 |
| Cc1c(C(F)(F)F)n(C)c(=O)n(-c2cc(SCC(C)(C)C(=O)NCC3CCCO3)c(Cl)cc2F)c1=O (centres unmarked) [I.54-221] | 80 |
| Cc1c(C(F)(F)F)n(C)c(=O)n(-c2cc(SCC(C)(C)C(=O)OCC3CCSC3)c(Cl)cc2F)c1=O (centres unmarked) [I.54-82] | 80 |

Test system: Viola tricolor
Experiment: as above
Format: in vivo
Conditions: application rate 20 g/ha
Experimental: as §1

| SMILES | Viola tricolor (Efficacy in %) [%] |
| --- | --- |
| CCC(C)C(Sc1cc(-n2c(=O)cc(C(F)(F)F)n(C)c2=O)c(F)cc1Cl)C(=O)OCC1CCCO1 (centres unmarked) [I.5-71] | 100 |
| CC(C)C(Sc1cc(-n2c(=O)cc(C(F)(F)F)n(C)c2=O)c(F)cc1Cl)C(=O)OCC1CCOC1 (centres unmarked) [I.6-72] | 100 |
| Cc1c(C(F)(F)F)n(C)c(=O)n(-c2cc(SCC(C)(C)C(=O)OCC3CCSC3)c(Cl)cc2F)c1=O (centres unmarked) [I.54-82] | 90 |

Test system: Oryza sativa
Experiment: Crop compatibility post-emergence (greenhouse pot trial)
Format: in vivo
Conditions: application rate 20 g/ha
Experimental: as §1, with “plants.” for “plants. Tables A1 to A15 below show the efficacies of selected compounds of the general formula (I) according to tables I.1 to I.60 on various harmful plants and an application rate corresponding to 80 g/ha or lower that were obtained by the aforementioned trial method.”
(§2) Crop plant compatibilities were also scored correspondingly.
(§3) The effects observed are reported here on selected crop plants by comparison with the untreated controls (values in %).

| Oryza sativa (Efficacy in %) [%] | SMILES |
| --- | --- |
| 20 | Cc1c(C(F)(F)F)n(C)c(=O)n(-c2cc(SCC(C)(C)C(=O)NCC3CCCO3)c(Cl)cc2F)c1=O (centres unmarked) [I.54-221] |
| 0 | Cc1c(C(F)(F)F)n(C)c(=O)n(-c2cc(SCC(C)(C)C(=O)OCC3CCSC3)c(Cl)cc2F)c1=O (centres unmarked) [I.54-82] |

Test system: Triticum aestivum
Experiment: as above
Format: in vivo
Conditions: application rate 5 g/ha
Experimental: as §1, with “plants.” for “plants. Tables A1 to A15 below show the efficacies of selected compounds of the general formula (I) according to tables I.1 to I.60 on various harmful plants and an application rate corresponding to 80 g/ha or lower that were obtained by the aforementioned trial method.”
as §2, §3

| Triticum aestivum (Efficacy in %) [%] | SMILES |
| --- | --- |
| 20 | CC(C)C(Sc1cc(-n2c(=O)cc(C(F)(F)F)n(C)c2=O)c(F)cc1Cl)C(=O)OCC1CCOC1 (centres unmarked) [I.6-72] |
| 0 | Cc1c(C(F)(F)F)n(C)c(=O)n(-c2cc(SCC(C)(C)C(=O)OCC3CCSC3)c(Cl)cc2F)c1=O (centres unmarked) [I.54-82] |

Same assay, conditions: application rate 20 g/ha

| Triticum aestivum (Efficacy in %) [%] | SMILES |
| --- | --- |
| 10 | CCC(C)C(Sc1cc(-n2c(=O)cc(C(F)(F)F)n(C)c2=O)c(F)cc1Cl)C(=O)OCC1CCCO1 (centres unmarked) [I.5-71] |
| 0 | Cc1c(C(F)(F)F)n(C)c(=O)n(-c2cc(SCC(C)(C)C(=O)NCC3CCCO3)c(Cl)cc2F)c1=O (centres unmarked) [I.54-221] |

Test system: Zea mays
Experiment: as above
Format: in vivo
Conditions: application rate 5 g/ha
Experimental: as §1, with “plants.” for “plants. Tables A1 to A15 below show the efficacies of selected compounds of the general formula (I) according to tables I.1 to I.60 on various harmful plants and an application rate corresponding to 80 g/ha or lower that were obtained by the aforementioned trial method.”
as §2, §3

| Zea mays (Efficacy in %) [%] | SMILES |
| --- | --- |
| 20 | Cc1c(C(F)(F)F)n(C)c(=O)n(-c2cc(SCC(C)(C)C(=O)OCC3CCSC3)c(Cl)cc2F)c1=O (centres unmarked) [I.54-82] |

Same assay, conditions: application rate 20 g/ha

| Zea mays (Efficacy in %) [%] | SMILES |
| --- | --- |
| 00 | Cc1c(C(F)(F)F)n(C)c(=O)n(-c2cc(SCC(C)(C)C(=O)NCC3CCCO3)c(Cl)cc2F)c1=O (centres unmarked) [I.54-221] |
